Patent US20220280476A1, “KCNT1 INHIBITORS AND METHODS OF USE” (Praxis Precision Medicines, Inc., priority 2019, published 2022)

These molecules were tested against T1, KCNT1 (KNa1.1, Slack) (Homo sapiens, UniProt Q5JUK3) (assay: KCNT1-WT-Basal patch clamp assay (SyncroPatch 384PE, HEK-TREX inducible cell line)). Conditions: tetracycline inducible HEK-TREX cells; perforated patch; holding -80 mV, 100 ms step to 0 mV; room temperature; read-out: KCNT1 WB IC50.
T1 construct: expressed in transfected cells; host or cells: HEK-TREX (tetracycline-inducible HEK cell line)
T1 sequence (Q5JUK3 1-1230): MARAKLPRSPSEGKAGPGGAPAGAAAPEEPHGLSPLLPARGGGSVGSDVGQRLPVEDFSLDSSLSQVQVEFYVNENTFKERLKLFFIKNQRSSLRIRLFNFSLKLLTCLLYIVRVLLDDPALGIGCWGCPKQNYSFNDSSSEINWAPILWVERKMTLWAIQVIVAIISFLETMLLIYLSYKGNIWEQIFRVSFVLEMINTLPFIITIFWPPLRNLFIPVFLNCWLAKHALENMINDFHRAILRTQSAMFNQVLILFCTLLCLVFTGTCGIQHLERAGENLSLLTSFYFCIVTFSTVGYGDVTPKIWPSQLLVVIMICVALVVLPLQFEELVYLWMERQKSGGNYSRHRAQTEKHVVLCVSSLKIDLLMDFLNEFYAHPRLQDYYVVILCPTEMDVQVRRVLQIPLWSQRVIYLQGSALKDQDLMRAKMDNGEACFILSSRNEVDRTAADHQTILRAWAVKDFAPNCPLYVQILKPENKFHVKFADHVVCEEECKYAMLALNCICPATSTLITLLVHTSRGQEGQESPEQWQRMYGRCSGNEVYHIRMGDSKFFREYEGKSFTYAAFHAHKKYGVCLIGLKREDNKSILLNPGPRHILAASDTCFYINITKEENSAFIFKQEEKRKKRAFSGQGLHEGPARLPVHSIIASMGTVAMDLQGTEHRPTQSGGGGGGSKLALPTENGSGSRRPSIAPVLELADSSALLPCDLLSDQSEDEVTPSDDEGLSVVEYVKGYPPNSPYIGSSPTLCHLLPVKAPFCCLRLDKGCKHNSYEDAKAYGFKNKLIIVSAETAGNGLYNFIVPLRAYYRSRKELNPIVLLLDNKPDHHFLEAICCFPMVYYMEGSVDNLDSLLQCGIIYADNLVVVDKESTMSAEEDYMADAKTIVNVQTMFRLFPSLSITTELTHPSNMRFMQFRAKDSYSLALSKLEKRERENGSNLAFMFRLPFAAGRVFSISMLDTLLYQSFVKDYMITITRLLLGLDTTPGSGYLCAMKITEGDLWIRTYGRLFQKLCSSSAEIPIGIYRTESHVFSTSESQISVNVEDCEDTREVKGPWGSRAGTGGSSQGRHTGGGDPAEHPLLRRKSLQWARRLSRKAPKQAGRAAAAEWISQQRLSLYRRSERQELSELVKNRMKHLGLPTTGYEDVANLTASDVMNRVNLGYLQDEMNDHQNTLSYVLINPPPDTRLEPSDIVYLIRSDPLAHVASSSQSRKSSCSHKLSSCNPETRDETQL
Assay type: cell-based
Procedure: KCNT1-WT-Basal—Patch Clamp Assay
Inhibition of KCNT1 (KNa1.1, Slack) was evaluated using a tetracycline inducible cell line (HEK-TREX). Currents were recorded using the SyncroPatch 384PE automated, patch clamp system. Pulse generation and data collection were performed with PatchController384 V1.3.0 and DataController384 V1.2.1 (Nanion Technologies). The access resistance and apparent membrane capacitance were estimated using built-in protocols. Current were recorded in perforated patch mode (10 μM escin) from a population of cells. The cells were lifted, triturated, and resuspended at 800,000 cells/ml. The cells were allowed to recover in the cell hotel prior to experimentation. Currents were recorded at room temperature. The external solution contained the following (in mM): NaCl 105, NMDG 40, KCl 4, MgCl2 1, CaCl2 5 and HEPES 10 (pH=7.4, Osmolarity ˜300 mOsm). The extracellular solution was used as the wash, reference and compound delivery solution. The internal solution contained the following (in mM): NaCl 70, KF 70, KCl 10, EGTA 5, HEPES 5 and Escin 0.01 (pH=7.2, Osmolarity ˜295 mOsm). Escin is made at a 5 mM stock in water, aliquoted, and stored at −20° C. The compound plate was created at 2× concentrated in the extracellular solution. The compound was diluted to 1:2 when added to the recording well. The amount of DMSO in the extracellular solution was held constant at the level used for the highest tested concentration. A holding potential of −80 mV with a 100 ms step to 0 mV was used. Mean current was measured during the step to 0 mV. […] The average mean current from 3 sweeps was calculated and the % inhibition of each compound was calculated. The % Inhibition as a function of the compound concentration was fit with a Hill equation to derive IC50, slope, min and max parameters. If KCNT1 inhibition was less than 50% at the highest tested concentration or if an IC50 could not be calculated, then a percent inhibition was reported in place of the IC50.

Row | SMILES | IC50 [nM]
1 | O=C(N[C@@H]1CCc2cc(Cl)ccc21)c1ccc(NS(=O)(=O)C(F)(F)F)cc1 [Compound II-12] | ≥ 20000
2 | CCS(=O)(=O)N(C)c1ccc(C(=O)N[C@@H]2CCc3cc(Cl)ccc32)cc1 [Compound II-13] | ≤ 1000
3 | CN(c1ccc(C(=O)N[C@@H]2CCc3cc(Cl)ccc32)cc1)S(=O)(=O)C1CC1 [Compound II-14] | ≤ 1000
4 | CCS(=O)(=O)Nc1ccc(C(=O)N[C@H]2CCc3cc(Cl)ccc32)cc1 [Compound II-17, N-[(1S)-5-chloroindan-1-yl]-4-(ethylsulfonylamino)benzamide] | ≥ 20000
5 | O=C(N[C@H]1CCc2cc(Cl)ccc21)c1ccc(NS(=O)(=O)C2CC2)cc1 [Compound II-18, N-[(1S)-5-chloroindan-1-yl]-4-(cyclopropylsulfonylamino)benzamide] | > 20000
6 | CCS(=O)(=O)N(C)c1ccc(C(=O)N[C@H]2CCc3cc(Cl)ccc32)cc1 [Compound II-19] | 1000 to 20000
7 | CN(c1ccc(C(=O)N[C@H]2CCc3cc(Cl)ccc32)cc1)S(=O)(=O)C1CC1 [Compound II-20] | 1000 to 20000
8 | CN(c1ccc(C(=O)N[C@H]2CCc3cc(Cl)ccc32)cc1)S(=O)(=O)C(F)(F)F [Compound II-21] | 1000 to 20000
9 | CS(=O)(=O)c1ccc(C(=O)N[C@@H]2CCc3cc(Cl)ccc32)cc1 [Compound II-22] | ≤ 1000
10 | CN(C)C(=O)c1ccc(C(=O)N[C@@H]2CCc3cc(Cl)ccc32)cc1 [Compound II-23] | 1000 to 20000
11 | CNC(=O)c1ccc(C(=O)N[C@@H]2CCc3cc(Cl)ccc32)cc1 [Compound II-24] | 1000 to 20000
12 | NS(=O)(=O)c1ccc(C(=O)N[C@@H]2CCc3cc(Cl)ccc32)cc1 [Compound II-25] | ≤ 1000
13 | NC(=O)c1ccc(C(=O)N[C@@H]2CCc3cc(Cl)ccc32)cc1 [Compound II-26] | 1000 to 20000
14 | CNS(=O)(=O)c1ccc(C(=O)N[C@@H]2CCc3cc(Cl)ccc32)cc1 [Compound II-27] | ≤ 1000
15 | CN(C)S(=O)(=O)c1ccc(C(=O)N[C@@H]2CCc3cc(Cl)ccc32)cc1 [Compound II-28] | ≤ 1000
16 | O=C(N[C@H]1CCc2cc(Cl)ccc21)c1ccc(NS(=O)(=O)C(F)(F)F)cc1 [Compound II-29, N-[(1S)-5-chloroindan-1-yl]-4-(trifluoromethylsulfonylamino)benzamide] | ≥ 20000
17 | CCS(=O)(=O)c1ccc(C(=O)N[C@@H]2CCc3cc(Cl)ccc32)cc1 [Compound II-30] | ≤ 1000
18 | CNS(=O)(=O)Nc1ccc(C(=O)N[C@@H]2CCc3cc(Cl)ccc32)cc1 [Compound II-32] | ≤ 1000
19 | Cc1cc(S(C)(=O)=O)ccc1C(=O)N[C@@H]1CCc2cc(Cl)ccc21 [Compound II-33] | ≥ 20000
20 | CN(C)S(=O)(=O)Nc1ccc(C(=O)N[C@@H]2CCc3cc(Cl)ccc32)cc1 [Compound II-34] | 1000 to 20000
21 | CS(=O)(=O)c1ccc(C(=O)N[C@@H]2CCc3cc(Cl)ccc32)cc1F [Compound II-35] | ≤ 1000
22 | CS(=O)(=O)c1ccc(C(=O)N[C@@H]2CCc3cc(Cl)ccc32)c(F)c1 [Compound II-36] | 1000 to 20000
23 | NS(=O)(=O)Nc1ccc(C(=O)N[C@@H]2CCc3cc(Cl)ccc32)cc1 [Compound II-37] | 1000 to 20000
24 | O=C(N[C@@H]1CCc2cc(Cl)ccc21)c1ccc(S(=O)(=O)C(F)(F)F)cc1 [Compound II-38] | ≤ 1000
25 | O=C(N[C@@H]1CCc2cc(Cl)ccc21)c1ccc(S(=O)(=O)C2CC2)cc1 [Compound II-39] | ≤ 1000
26 | COCCS(=O)(=O)c1ccc(C(=O)N[C@@H]2CCc3cc(Cl)ccc32)cc1 [Compound II-40] | 1000 to 20000

Row | SMILES | IC50 [nM]
27 | O=C(N[C@@H]1CCc2cc(Cl)ccc21)c1ccc(S(=O)(=O)C(F)F)cc1 [Compound II-42] | ≤ 1000
28 | COCCN(c1ccc(C(=O)N[C@@H]2CCc3cc(Cl)ccc32)cc1)S(C)(=O)=O [Compound II-43] | 1000 to 20000
29 | CN(C)CCN(c1ccc(C(=O)N[C@@H]2CCc3cc(Cl)ccc32)cc1)S(C)(=O)=O [Compound II-44] | 1000 to 20000
30 | CS(=O)(=O)N(CC(F)(F)F)c1ccc(C(=O)N[C@@H]2CCc3cc(Cl)ccc32)cc1 [Compound II-45] | 1000 to 20000
31 | CS(=O)(=O)N(CCOC(F)(F)F)c1ccc(C(=O)N[C@@H]2CCc3cc(Cl)ccc32)cc1 [Compound II-46] | ≥ 20000
32 | CS(=O)(=O)N(CCO)c1ccc(C(=O)N[C@@H]2CCc3cc(Cl)ccc32)cc1 [Compound II-47] | 1000 to 20000
33 | Cc1cc(C(=O)N[C@@H]2CCc3cc(Cl)ccc32)ccc1S(C)(=O)=O [Compound II-48] | 1000 to 20000
34 | CN(C)C(=O)CN(c1ccc(C(=O)N[C@@H]2CCc3cc(Cl)ccc32)cc1)S(C)(=O)=O [Compound II-49] | 1000 to 20000
35 | CS(=O)(=O)N(c1ccc(C(=O)N[C@@H]2CCc3cc(Cl)ccc32)cc1)C1COC1 [Compound II-50] | 1000 to 20000
36 | O=C(N[C@@H]1CCc2cc(Cl)ccc21)c1ccc(S(=O)(=O)CC(F)F)cc1 [Compound II-51] | 1000 to 20000
37 | O=C(N[C@@H]1CCc2cc(Cl)ccc21)c1ccccc1O [Compound III-3] | ≤ 1000
38 | O=C(N[C@@H]1CCc2cc(Cl)ccc21)c1ccc(F)cc1O [Compound III-4] | ≤ 1000
39 | CS(=O)(=O)Nc1ccc(C(=O)N[C@@H]2CCc3cc(Cl)ccc32)c(O)c1 [Compound III-5] | ≤ 1000
40 | O=C(N[C@@H]1CCc2cc(Cl)ccc21)c1cc(F)ccc1O [Compound III-6] | ≤ 1000
41 | O=C(N[C@@H]1CCc2cc(Cl)ccc21)c1cccc(Cl)c1O [Compound III-7] | ≤ 1000
42 | O=C(N[C@@H]1CCc2cc(Cl)ccc21)c1c(O)cccc1F [Compound III-8] | 1000 to 20000
43 | O=C(N[C@@H]1CCc2cc(Cl)ccc21)c1cccc(F)c1O [Compound III-9] | ≤ 1000
44 | O=C(N[C@@H]1CCc2cc(Cl)ccc21)c1cccc(C(F)(F)F)c1O [Compound III-10] | ≤ 1000
45 | O=C(N[C@@H]1CCc2cc(Cl)ccc21)c1cc(Cl)ccc1O [Compound III-11] | ≤ 1000
46 | Cc1ccc(O)c(C(=O)N[C@@H]2CCc3cc(Cl)ccc32)c1 [Compound III-12] | ≤ 1000
47 | COc1cccc(O)c1C(=O)N[C@@H]1CCc2cc(Cl)ccc21 [Compound III-13] | 1000 to 20000
48 | COc1cccc(C(=O)N[C@@H]2CCc3cc(Cl)ccc32)c1O [Compound III-14] | ≤ 1000
49 | Cc1cccc(C(=O)N[C@@H]2CCc3cc(Cl)ccc32)c1O [Compound III-15] | ≤ 1000
50 | CC(=O)Nc1cccc(C(=O)N[C@@H]2CCc3cc(Cl)ccc32)c1O [Compound III-16] | ≤ 1000
51 | Cc1cccc(O)c1C(=O)N[C@@H]1CCc2cc(Cl)ccc21 [Compound III-17] | ≥ 20000
